Assay results from patent US8846570B2, “Herbicidal compositions comprising 4-amino-3-chloro-5-fluoro-6-(4-chloro-2-fluoro-3-methoxyphenyl)pyridine-2-carboxylic acid or a derivative thereof and microtubule inhibiting herbicides” (Dow AgroSciences LLC, priority 2012, dated 2014).

Assays:
Format in all cases: in vivo
[1] = test system: Leptochloa chinensis (L.) Nees (LEFCH); assay: In-water applied, transplanted paddy rice, greenhouse: visual weed control; conditions: 21 DAA
Procedure: Weed seeds or nutlets of the desired test plant species were planted in puddled soil (mud) prepared by mixing a shredded, non-sterilized mineral soil (50.5 percent silt, 25.5 percent clay, and 24 percent sand, with a pH of about 7.6 and an organic matter content of about 2.9 percent) and water at a 1:1 volumetric ratio. The prepared mud was dispensed in 365 mL aliquots into 16-ounce (oz.) non-perforated plastic pots with a surface area of 86.59 square centimeters (cm^2) leaving a headspace of 3 centimeters (cm) in each pot. Mud was allowed to dry overnight prior to planting or transplanting. Rice seeds were planted in Sun Gro MetroMix® 306 planting mixture, which typically has a pH of 6.0 to 6.8 and an organic matter content of about 30 percent, in plastic plug trays. Seedlings at the second or third leaf stage of growth were transplanted into 860 mL of mud contained in 32-oz. non-perforated plastic pots with a surface area of 86.59 cm^2 4 days prior to herbicide application. The paddy was created by filling the headspace of the pots with 2.5 to 3 cm of water. When required to ensure good germination and healthy plants, a fungicide treatment and/or other chemical or physical treatment was applied. The plants were grown for 4-22 days in a greenhouse with an approximate 14 h photoperiod which was maintained at about 29° C. during the day and 26° C. during the night. Nutrients were added as Osmocote® (19:6:12, N:P:K+minor nutrients) at 2 g per 16.-oz. pot and 4 g per 32-oz. pot. Water was added on a regular basis to maintain the paddy flood, and supplemental lighting was provided with overhead metal halide 1000-Watt lamps as necessary. The plants were employed for testing when they reached the first through fourth true leaf stage.
Treatments consisted of the acid or esters of 4-amino-3-chloro-5-fluoro-6-(4-chloro-2-fluoro-3-methoxy-phenyl)pyridine-2-carboxylic acid (compound A) each formulated as an SC and various herbicidal components alone and in combination. Forms of compound A were applied on an acid equivalent basis.
Treatment requirements for each compound or herbicidal component were calculated based upon the rates being tested, the concentration of active ingredient or acid equivalent in the formulation, an application volume of 2 mL per component per pot, and an application area of 86.59 cm^2 per pot.
For formulated compounds, a measured amount was placed in an individual 100 or 200 mL glass vial and was dissolved in a volume of 1.25% (v/v) Agri-Dex® crop oil concentrate to obtain application solutions.
For technical grade compounds, a weighed amount was placed in an individual 100 to 200 mL glass vial and was dissolved in a volume of acetone to obtain concentrated stock solutions. […] The concentrated stock solutions obtained were diluted with an equivalent volume of an aqueous mixture containing 2.5% (v/v) crop oil concentrate so that the final application solutions contained 1.25% (v/v) crop oil concentrate.
Applications were made by injecting, with a pipetter, appropriate amounts of the application solutions into the aqueous layer of the paddy. Control plants were treated in the same manner with the solvent blank. Applications were made so that all treated plant material received the same concentrations of acetone and crop oil concentrate.
(§1) The treated plants and control plants were placed in a greenhouse as described above and water was added as needed to maintain a paddy flood. After approximately 3 weeks the condition of the test plants as compared with that of the untreated plants was determined visually and scored on a scale of 0 to 100 percent where 0 corresponds to no injury or growth inhibition and 100 corresponds to complete kill.
Colby's equation was used to determine the herbicidal effects expected from the mixtures (Colby, S. R. 1967. Calculation of the synergistic and antagonistic response of herbicide combinations. Weeds 15:20-22.). […]

[2] = test system: Ipomoea hederacea Jacq. (IPOHE); assay: Postemergence foliar-applied, direct seeded rice, greenhouse: visual weed control; conditions: post-emergence, 504 h, read-out: Visual Weed Control (%) Obs
Procedure: (§2) Seeds or nutlets of the desired test plant species were planted in a soil matrix prepared by mixing a loam or sandy loam soil (e.g., 28.6 percent silt, 18.8 percent clay, and 52.6 percent sand, with a pH of about 5.8 and an organic matter content of about 1.8 percent) and calcareous grit in an 80 to 20 ratio. The soil matrix was contained in plastic pots with a volume of 1 quart and a surface area of 83.6 cm^2. […] The plants were grown for 8-22 days in a greenhouse with an approximate 14 h photoperiod which was maintained at about 29° C. during the day and 26° C. during the night. Nutrients (Peters Excel® 15-5-15 5-Ca 2-Mg and iron chelate) were applied in the irrigation solution as needed and water was added on a regular basis. Supplemental lighting was provided with overhead metal halide 1000-Watt lamps as necessary. The plants were employed for testing when they reached the first through fourth true leaf stage.
(§3) Forms of compound A were applied on an acid equivalent basis.
(§4) For treatments comprised of formulated compounds, measured amounts of compounds were placed individually in 25 mL glass vials and diluted in a volume of 1.25% (v/v) Agri-Dex® crop oil concentrated to obtain 12× stock solutions. […] Application solutions were prepared by adding an appropriate amount of each stock solution (e.g., 1 mL) and diluted to the appropriate final concentrations with the addition of 10 mL of an aqueous mixture of 1.25% (v/v) crop oil concentrate so that the final spray solutions contained 1.25+/−0.05% (v/v) crop oil concentrate.
(§5) As required, additional water and/or 97:3 v/v acetone/DMSO was added to individual application solutions so that the final acetone and DMSO concentrations of the application solutions being compared were 8.1% and 0.25%, respectively.
(§6) All stock solutions and applications solutions were visually inspected for compound compatibility prior to application. Spray solutions were applied to the plant material with an overhead Mandel track sprayer equipped with a 8002E nozzles calibrated to deliver 187 L/ha over an application area of 0.503 m^2 at a spray height of 18 to 20 inches (46 to 50 cm) above average plant canopy height. Control plants were sprayed in the same manner with the solvent blank.
as §1, with “watered by sub-irrigation” for “water was added as needed”, “prevent wash-off of the test compounds.” for “maintain a paddy flood.”, “weeks,” for “weeks”
(§7) Colby's equation was used to determine the herbicidal effects expected from the mixtures (Colby, S. R. 1967. Calculation of the synergistic and antagonistic response of herbicide combinations. Weeds 15:20-22.).
(§8) The following equation was used to calculate the expected activity of mixtures containing two active ingredients, A and B: Expected=A+B−(A×B/100)

[3] = test system: Echinochloa crusgalli (L.) Beauv. (ECHCG); assay: as above; conditions: 21 DAA
Procedure: as §2, §3, §4, §5, §6
as §1, with “watered by sub-irrigation” for “water was added as needed”, “prevent wash-off of the test compounds.” for “maintain a paddy flood.”, “weeks,” for “weeks”
as §7, §8

## CCCCOC(=O)c1nc(-c2ccc(Cl)c(OC)c2F)c(F)c(N)c1Cl [Compound A n-Butyl Ester]
[1]; 35 g ae/ha
  Visual Weed Control (%) Obs: 8%
[1]; 70 g ae/ha
  Visual Weed Control (%) Obs: 38%
[2]
  pest or weed control at 17.5 g/ha: 40%
[3]; 17.5 g ae/ha
  Visual Weed Control (%) Obs: 45%
[3]; 35 g ae/ha
  Visual Weed Control (%) Obs: 70%
